The results in this text go back to PubChem BioAssay AID1996.

What is called kinetic solubility is solubility judged after dilution from a stock solution rather than from solid.

SMILES strings stand for the structures. Converted amounts (≈) assume the structure as drawn.

The conditions of the data set: buffer; pH 7.4; 200.0 µM.
For the compound `CCCCCOc1ccc(C(=O)CCC(=O)NC(C)c2ccc(S(N)(=O)=O)cc2)cc1` (centres undefined), the kinetic solubility came to 10.9 µg/mL (≈ 24.4 µM).

Compound `COCCCC/C(=N\OCCN)c1ccc(C(F)(F)F)cc1.O=C(O)/C=C\C(=O)O` registered a solubility (kinetic) of over 65.2 µg/mL.

`O=C(O)c1ccc(Cl)c(S(=O)(=O)NCc2cccnc2)c1` came in with a kinetic solubility of over 49 µg/mL.

`CC(C)COP(=O)(c1ccc(N(C)C)cc1)C(O)c1ccccc1` (centres undefined) returned a solubility (kinetic) of over 52.1 µg/mL.

For `FC(F)(F)c1ccc(-c2csc(-c3ccno3)n2)cc1`, the solubility (kinetic) is under 0.3 µg/mL.

As to `CCCCNS(=O)(=O)c1ccc(NC(=O)c2cccs2)cc1`, the kinetic solubility came out at 1 µg/mL (≈ 2.95 µM).

Compound `COC(=O)c1cc(S(=O)(=O)Nc2cccc(-c3cnco3)c2)oc1C` had a kinetic solubility of 50.3 µg/mL (≈ 139 µM).

In turn, `Cc1cc(NC(=O)CSc2nc3c(cc2C#N)CCC3)no1` displayed a solubility (kinetic) of 1.4 µg/mL (≈ 4.45 µM).

With `O=C1Nc2ccc([N+](=O)[O-])cc2OC1CCN1CCCC1` (centres undefined), the solubility (kinetic) is over 43.7 µg/mL.

Turning to `COc1ccc(CNCCC2(C(C)C)CCOC(C)(C)C2)cc1` (centres undefined), the kinetic solubility was over 47.9 µg/mL.

`Cc1[nH]c2ccccc2c1SCC(=O)N1CCCCC1` showed a kinetic solubility of 40.4 µg/mL (≈ 140 µM).

With `O=C(CN1CCOCC1)Nc1ccc(Cl)cn1`, the kinetic solubility is over 38.4 µg/mL.

In turn, `CCOc1ccc(S(=O)(=O)N2CCCCC2)c(C)c1C` came in with a solubility (kinetic) of 9.7 µg/mL (≈ 32.6 µM).

Consider `Cc1ccc(-n2c(O)c(C=NCC3CCCO3)c(=O)[nH]c2=O)c(C)c1` (centres undefined), for which the solubility (kinetic) is over 51.5 µg/mL.

`COc1ccc(CNC(=O)c2ccncc2)cc1` registered a kinetic solubility of over 36.3 µg/mL.

In turn, `Cc1ccc(NC(=O)c2cccnc2C(=O)O)nc1` yielded a solubility (kinetic) of over 38.6 µg/mL.

For `Cc1cccc(N2CCN(Cc3cnc(Cl)s3)CC2C)c1` (centres undefined), the kinetic solubility turned out to be 23.4 µg/mL (≈ 72.7 µM).

The compound `CC1CC(O)(CC(O)(c2ccccc2)c2ccccc2)C(C)CN1C` (centres undefined) yielded a kinetic solubility of over 50.9 µg/mL.

`COc1ccc(NC(=S)NC(=O)/C=C/c2ccc(F)cc2)cc1` yielded a kinetic solubility of under 0.4 µg/mL.

Compound `CC(C)Cc1nc2ccccc2[nH]1` yielded a kinetic solubility of over 26.1 µg/mL.

Consider `OC[C@@H](O)C1OC2NC(=S)OC2C1O` (some centres undefined), for which the solubility (kinetic) is over 33.2 µg/mL.

The compound `CCOC(=O)CCN1C(=O)c2ccccc2Sc2ncccc21` showed a kinetic solubility of over 49.3 µg/mL.

On to `CCOC(=O)C1=C(C)Nc2nc3ccccc3n2C1c1ccc(O)cc1` (centres undefined), for which the solubility (kinetic) was under 0.2 µg/mL.

Compound `C=CCCC(=O)N1CCCC(C(=O)c2cccc(OC)c2)C1` (centres undefined) showed a kinetic solubility of 40.7 µg/mL (≈ 135 µM).

As to `Cc1cccc(NC(=O)CN2C(=O)CSC2=O)c1`, the solubility (kinetic) is over 39.6 µg/mL.

In turn, `COc1ccc(NC(=O)C2CCCNC2=O)cc1` (centres undefined) showed a solubility (kinetic) of over 37.2 µg/mL.

With `O=C(COC(=O)C1(c2cccc(F)c2)CCCC1)NCc1cccs1`, the solubility (kinetic) came to 16.2 µg/mL (≈ 44.8 µM).

The compound `COc1cc([N+](=O)[O-])cc2sc(NC(=O)C(C)(C)C)nc12` displayed a kinetic solubility of under 0.2 µg/mL.

Compound `O=C(CNC(=O)c1ccc(Br)o1)NC1CCCCC1` returned a kinetic solubility of over 49.4 µg/mL.

As to `O=C(Nc1ccccc1)Nc1ccccc1C(=O)NCC1CC1`, the solubility (kinetic) was found to be 5.1 µg/mL (≈ 16.5 µM).

`COc1ccc2ccccc2c1CN1CCSCC1` showed a solubility (kinetic) of 21.5 µg/mL (≈ 78.6 µM).

On to `O=C1CC(c2ccccc2)=Nc2ccc(Br)cc2N1`, for which the solubility (kinetic) stood at 0.9 µg/mL (≈ 2.86 µM).

Compound `Cc1ccc(NC(=S)NC(=O)c2cncc(Br)c2)cc1Cl` came in with a kinetic solubility of 2.4 µg/mL (≈ 6.24 µM).

Compound `CCn1c(=O)c2cc(C(=O)NC(C)C)sc2c2ccccc21` came in with a solubility (kinetic) of 1 µg/mL (≈ 3.18 µM).

`O=C(NC1CCCCC1)c1cc(-c2ccc(O)cc2)on1` displayed a kinetic solubility of under 0.3 µg/mL.

With `O=C(NC1CCN(C(=O)Nc2cccc(F)c2)CC1)c1ccco1`, the kinetic solubility is over 49.7 µg/mL.

With `CCc1ncc(C)[nH]1`, the kinetic solubility was over 16.5 µg/mL.

Take `CC1=C(C)CC(C(=O)NCc2ccccn2)C(C(=O)O)C1` (centres undefined): the solubility (kinetic) is over 43.3 µg/mL.

For the compound `CC1CN(C(=S)Nc2cccc(Cl)c2)CC(C)O1` (centres undefined), the kinetic solubility is over 42.7 µg/mL.

`C=CCNC(=O)/C(=C/c1cccc([N+](=O)[O-])c1)NC(=O)c1ccco1` displayed a solubility (kinetic) of 43.3 µg/mL (≈ 127 µM).

Regarding `CC(=O)c1cccc(CN2CCN(C3CCCC3)C(CCO)C2)c1` (centres undefined), the kinetic solubility is over 49.6 µg/mL.

In the case of `Cc1cc(C)c(S(=O)(=O)N2CCN(C3CC(=O)N(c4ccccc4Cl)C3=O)CC2)c(C)c1` (centres undefined), the kinetic solubility came out at 16.7 µg/mL (≈ 35.1 µM).

`CC(C)CN1CCN(Cc2cccc3c2OCO3)CC1CCO` (centres undefined) gave a solubility (kinetic) of over 48.1 µg/mL.

In turn, `COC(=O)[C@H](Cc1ccccc1)NC(=O)NCc1ccc(C)cc1` returned a kinetic solubility of over 49 µg/mL.

Compound `CC(C)NC(=O)COCc1cc(-c2ccc3c(c2)OCO3)on1` had a kinetic solubility of over 47.7 µg/mL.

In the case of `Cc1c(C(=O)OCC(=O)N2CCCCC2C)oc2ccccc12` (centres undefined), the solubility (kinetic) was over 47.3 µg/mL.

In turn, `CCOc1ccc(Nc2ccnc3cc(Cl)ccc23)cc1` displayed a solubility (kinetic) of under 0.3 µg/mL.

In turn, `COC(=O)c1cc(OC)c(OC)cc1NC(=S)N1CCOCC1` returned a solubility (kinetic) of 39.7 µg/mL (≈ 117 µM).

`Cc1ccc(-n2c(C)nc3cc(Cl)ccc3c2=O)nc1`: the kinetic solubility was over 42.9 µg/mL.

As to `CCN(CC)Cc1oc(-c2ccccc2)cc1C(=O)O`, the solubility (kinetic) was determined as 32.2 µg/mL (≈ 118 µM).

As to `CCOCCCNC1=C(Cl)C(=O)c2ccccc2C1=O`, the kinetic solubility is 31.9 µg/mL (≈ 109 µM).

`CC(NC(=O)c1ccc(F)cc1Cl)C1CC2CCC1C2` (centres undefined) registered a kinetic solubility of 16.6 µg/mL (≈ 56.1 µM).

The compound `CC(=O)NS(=O)(=O)c1ccc(NC(=O)[C@@H]2CCCN2S(=O)(=O)c2ccc(Cl)cc2)cc1` displayed a kinetic solubility of over 72.9 µg/mL.

`O=C(Nc1sc2c(c1C(=O)O)CCCCC2)c1ccccc1` registered a kinetic solubility of over 47.3 µg/mL.

The compound `COc1ccc(C2C(C#N)=C(N)Oc3cccc(O)c32)cc1` (centres undefined) returned a kinetic solubility of 9.6 µg/mL (≈ 32.6 µM).

In the case of `O=S(=O)(Cc1cc(Cl)nc(-c2cccnc2)n1)c1ccccc1`, the kinetic solubility came out at 40.7 µg/mL (≈ 118 µM).

`COc1cc(OC)c(CN2CCCN(C)CC2)cc1Br` had a kinetic solubility of 44.9 µg/mL (≈ 131 µM).

`Cc1noc(C)c1C(=O)Nc1sccc1C(N)=O` returned a solubility (kinetic) of 7.7 µg/mL (≈ 29 µM).

Take `S=C(NCC1CCCO1)c1ccc(Br)cc1` (centres undefined): the solubility (kinetic) was 39 µg/mL (≈ 130 µM).

Compound `O=C(N/C(=C/c1ccc(F)cc1)C(=O)N1CCCCC1)c1ccco1` returned a kinetic solubility of over 51.4 µg/mL.

For `Cc1ccc(NS(=O)(=O)N2CCOCC2)cc1`, the kinetic solubility is over 38.4 µg/mL.

Compound `O=C(Nc1cc(Cl)ccc1Cl)C1CCCO1` (centres undefined) gave a solubility (kinetic) of 28.9 µg/mL (≈ 111 µM).

Compound `O=c1cc(-c2ccccc2)c2cc3c(cc2[nH]1)OCCO3` showed a solubility (kinetic) of 1.4 µg/mL (≈ 5.01 µM).

`CCc1ccc2nc(SCC(=O)NCC3CCCO3)c(C#N)cc2c1` (centres undefined) yielded a solubility (kinetic) of 1.9 µg/mL (≈ 5.35 µM).

`O=C(CCCC(=O)N1CCCC1)N1CCCC1`: the solubility (kinetic) is 26.3 µg/mL (≈ 110 µM).

In turn, `Cc1occc1C(=O)Nc1cnn(CCCC(=O)O)c1` came in with a solubility (kinetic) of over 41.6 µg/mL.

As to `CC(C)(CC(=O)O)CC(=O)Nc1ccccc1Oc1ccccc1`, the solubility (kinetic) was over 49.1 µg/mL.

With `O=C(Nc1cccnc1)c1cc(-c2ccccc2O)on1`, the kinetic solubility came to 1.3 µg/mL (≈ 4.62 µM).

Consider `O=C1c2cccnc2C(=O)N1c1cccc([N+](=O)[O-])c1`, for which the kinetic solubility is over 40.4 µg/mL.

`CN1C(=O)/C(=C/c2cn(CC(=O)N3CCCCC3)c3ccccc23)NC1=S` had a solubility (kinetic) of 2.7 µg/mL (≈ 7.06 µM).

Compound `CC(C)C(=O)NCc1cc(-c2ccccc2)no1` came in with a kinetic solubility of 32.5 µg/mL (≈ 133 µM).

Compound `CCCC(=NC(C)CC)C1=C(O)CC(c2ccccc2)CC1=O` (centres undefined) displayed a solubility (kinetic) of 39 µg/mL (≈ 124 µM).

For `COc1ccc(NC(=O)c2ccco2)cc1NC(=O)c1cccc(F)c1`, the solubility (kinetic) is under 0.4 µg/mL.

`O=C(c1cccc(C(F)(F)F)c1)N1CCN(CCc2ccccc2)CC1` yielded a kinetic solubility of over 54.4 µg/mL.
